Numbering of substitutions follows the chain as printed.
Legend:
[1] = tested on: MV4-11 human acute myeloid leukemia cell with FLT3-ITD mutation; assay: MV4-11 cell proliferation assay (CellTiter 96); type: cell-based; conditions: Homo sapiens, MV4-11, 72 h, MV4-11 cells, 72 hours treatment, CellTiter96; read-out: anti-proliferation activity MV4-11 (FLT3-ITD), IC50 ranking
Procedure: (§1) Inhibitions of cell growths by compounds were measured using CellTiter™-96 assay. The cytotoxicities of compounds of the invention were evaluated in cell line panels with different signaling pathway dependencies, including MV4-11 human acute myeloid leukemia cell with FLT3-ITD mutation, Molm-14 human acute myeloid leukemia cell with FLT3-ITD mutation, THP-1 human acute monocytic leukemia cell with NRAS G12D mutation, A375 melanoma cell with BRAF V600E mutation, and HCC827 NSCLC cell with EGFR exon 19 deletion mutation.
The compounds disclosed herein were tested in MV4-11 cell proliferation assay to determine their cellular potencies against FLT3 signal pathway dependent cell growths. MV4-11 cells are human acute myeloid leukemia (AML) cells harboring ligand-independent FLT3-ITD activating mutation, which renders the abnormal proliferation of AML cells FLT3 signaling pathway dependent. Inhibition of FLT3 kinase activity will result in reduced growths and/or cell deaths. MV4-11 cells (catalog #CRL-9591) were obtained from the American Type Culture Collection (ATCC, Manassas, VA). Briefly, cells were grown in IMDM medium supplemented with 10% heat inactivated fetal bovine serum and incubated at 37° C. in 5% CO2 atmosphere. Cells were allowed to expand until reaching saturation, at which point they were sub-cultured or harvested for assay use.
(§2) MV4-11, Molm-14, THP-1, A375, and HCC827 cells were seeded into 96-well plates at 6500, 25000, 5000, 2000 and 8000 cells/well, respectively, and incubated at 37° C., 5% CO2 overnight. Then, these seeded cells were treated with increasing concentrations of the test compounds and incubated for another 72 hours. At the end of the incubation, CellTiter96® AQueous One Solution Reagent (Promega, […]) was added and incubated for the additional 2˜4 hours. Cell viability was determined by measuring absorbance at 490 nm using EMax® microplate reader (Molecular Devices, San Jose, CA, USA).

[2] = tested on: THP-1 human acute monocytic leukemia cell with NRAS G12D mutation; assay: THP-1 cell proliferation assay (counter screen); type: cell-based; conditions: Homo sapiens, THP-1 cells, 72 hours treatment, CellTiter96, read-out: anti-proliferation activity THP-1 NRAS N12D, IC50 ranking
Procedure: as §1
THP-1 cells are human acute monocytic leukemia cells with NRAS G12D mutation, which renders the cell growth independent of class III RTKs signaling. THP-1 cells (catalog #TIB-202) were obtained from the ATCC. Briefly, cells were grown in RPMI 1640 medium supplemented with 10% heat inactivated fetal bovine serum and 0.05 mM 2-mercaptoethanol and incubated at 37° C. in 5% CO2 atmosphere. Cells were allowed to expand until reaching saturation, at which point they were sub-cultured or harvested for assay use.
as §2

[3] = tested on: Molm-14 human acute myeloid leukemia cell with FLT3-ITD mutation; assay: Molm-14 cell proliferation assay (CellTiter 96); type: cell-based; conditions: Homo sapiens; Molm-14 cells, 72 hours treatment, CellTiter96; read-out: anti-proliferation activity Molm-14 (FLT3-ITD), IC50 ranking
Procedure: as §1
The compounds disclosed herein were tested in Molm-14 cell proliferation assay to determine their cellular potencies against FLT3 signal pathway dependent cell growths. Molm-14 cells are human acute myeloid leukemia (AML) cells harboring ligand-independent FLT3-ITD activating mutation, which renders the abnormal proliferation of the AML cells FLT3 signaling pathway dependent. Inhibition of FLT3 kinase activity will result in reduced growths and/or cell deaths. […] Briefly, cells were grown in RPMI 1640 medium supplemented with 10% heat inactivated fetal bovine serum and incubated at 37° C. in 5% CO2 atmosphere. Cells were allowed to expand until reaching saturation, at which point they were sub-cultured or harvested for assay use.
as §2

[4] = tested on: A375 melanoma cell with BRAF V600E mutation; assay: A375 cell proliferation assay (counter screen); type: cell-based, human; conditions: Homo sapiens, A-375, A375 cells, 72 hours treatment, CellTiter96, read-out: anti-proliferation activity A375 BRAF V600E, IC50 ranking
Procedure: as §1
(§3) A375 cells are melanoma cells encoding BRFA V600E mutation, which renders the cell growth dependent on BRAF signaling instead of class III RTKs signaling. A375 cells (catalog #CRL-1619) were obtained from the ATCC. Briefly, cells were cultured in DMEM containing 10% FBS and incubated at 37° C. in 5% CO2 atmosphere. Cells were allowed to expand until reaching saturation, at which point they were sub-cultured or harvested for assay use.
as §2

[5] = tested on: HCC827 NSCLC cell with EGFR exon 19 deletion mutation; assay: HCC827 cell proliferation assay (counter screen); type: cell-based, human; conditions: Homo sapiens, HCC827 cells, 72 hours treatment, CellTiter96, read-out: anti-proliferation activity HCC827 EGFR Exon19 del, IC50 ranking
Procedure: as §1
as §3, with “HCC827” for “A375”, “non-small cell lung carcinoma (NSCLC)” for “melanoma”, “EGFR exon 19 deletion” for “BRFA V600E”, “EGFR” for “BRAF”, “#CRL-2868)” for “#CRL-1619)”, “RPMI1640 medium supplemented with” for “DMEM containing”
as §2

FLT3-D835Y mutant kinase = target: T1, FLT3-D835Y mutant kinase (Homo sapiens, UniProt P36888, D835Y); assay: FLT3-D835Y mutant kinase assay (AlphaScreen); type: biochemical; conditions: mean; read-out: Biochemical activity (Mean IC50, nM) FLT3-D835Y
T1 construct: purchased SignalChem
T1 sequence (P36888 27-993 D835Y): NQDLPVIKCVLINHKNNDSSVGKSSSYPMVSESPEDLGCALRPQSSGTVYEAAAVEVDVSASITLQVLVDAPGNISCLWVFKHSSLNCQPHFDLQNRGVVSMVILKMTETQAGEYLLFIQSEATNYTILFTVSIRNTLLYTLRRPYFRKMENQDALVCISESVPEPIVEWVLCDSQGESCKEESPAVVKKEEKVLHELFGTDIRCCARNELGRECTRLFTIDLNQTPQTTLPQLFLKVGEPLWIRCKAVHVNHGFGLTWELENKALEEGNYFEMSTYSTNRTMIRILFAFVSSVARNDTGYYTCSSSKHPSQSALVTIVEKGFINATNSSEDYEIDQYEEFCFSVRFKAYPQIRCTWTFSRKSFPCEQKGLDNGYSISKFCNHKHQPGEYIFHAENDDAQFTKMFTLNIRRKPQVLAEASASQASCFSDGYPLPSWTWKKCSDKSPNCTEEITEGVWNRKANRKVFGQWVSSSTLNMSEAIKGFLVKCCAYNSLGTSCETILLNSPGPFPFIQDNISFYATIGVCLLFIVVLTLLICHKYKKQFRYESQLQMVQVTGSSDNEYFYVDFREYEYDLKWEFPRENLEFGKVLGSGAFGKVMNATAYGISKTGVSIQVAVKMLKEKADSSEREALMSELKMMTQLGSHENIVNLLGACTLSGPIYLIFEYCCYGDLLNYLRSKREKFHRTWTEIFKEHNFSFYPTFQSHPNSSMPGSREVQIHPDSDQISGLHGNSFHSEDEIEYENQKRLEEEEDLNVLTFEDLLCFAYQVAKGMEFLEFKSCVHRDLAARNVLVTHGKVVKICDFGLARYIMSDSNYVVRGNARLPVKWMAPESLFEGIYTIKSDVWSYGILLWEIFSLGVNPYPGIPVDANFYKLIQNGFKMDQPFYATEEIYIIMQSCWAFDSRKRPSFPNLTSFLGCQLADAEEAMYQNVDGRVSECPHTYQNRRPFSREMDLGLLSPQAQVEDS
Procedure: Inhibition of FLT3-D835Y mutant kinase activity by a test compound disclosed herein was estimated by AlphaScreen (PerkinElmer). Standard assay conditions were 1 ng of recombinant FLT3-D835Y mutant kinase (SignalChem) with 6 ng Biotin-conjugated Poly-(Glu 4: Tyr 1) (Cisbio) in the assay buffer (10 μM ATP, 10 mM MOPs, pH7.0, 0.21 mM EDTA, 0.5% glycerol, 1 mg/mL BSA, 0.01% 2-mercaptoethanol, 0.001% Brij35, 10 mM MgCl2) in a final volume of 25 μL. Reactions were incubated at 30° C. for 30 min and stopped by adding 5 μL of 50 mM EDTA. Analysis of resulting product using an AlphaScreen kit and counted with Enspire Alpha (PerkinElmer). […] The IC50 values of inhibitors were determined after carrying out assays with each compound at serially diluted concentrations in duplication. The results were analyzed using linear regression software (GraphPad Prism 5; GraphPad Software Inc.)

FLT3 kinase = target: T2, FLT3 kinase (Homo sapiens, UniProt P36888); assay: FLT3 kinase assay (AlphaScreen); type: biochemical; conditions: mean; read-out: Biochemical activity (Mean IC50, nM) FLT3
T2 construct: purchased SignalChem
T2 sequence (P36888 27-993): T1 sequence (P36888 27-993 D835Y) with Y809D
Procedure: Inhibition of FLT3 kinase activity by a test compound disclosed herein was estimated by AlphaScreen (PerkinElmer, […]). Standard assay conditions were 1.5 ng of recombinant FLT3 kinase (SignalChem, Richmond, BC, Canada) with 6 ng Biotin-conjugated Poly-(Glu 4: Tyr 1) (Cisbio, Bedford, MA, USA) in the assay buffer (10 μM ATP, 10 mM MOPs, pH7.0, 0.21 mM EDTA, 0.5% glycerol, 1 mg/mL BSA, 0.01% 2-mercaptoethanol, 0.001% Brij35, 10 mM MgCl2) in a final volume of 25 μL. Reactions were incubated at 30° C. for 30 min and stopped by adding 5 μL of 50 mM EDTA. Analysis of resulting product using an AlphaScreen kit and counted with Enspire Alpha (PerkinElmer, Waltham, MA, USA). […] The IC50 values of inhibitors were determined after carrying out assays with each compound at serially diluted concentrations in duplication. The results were analyzed using linear regression software (GraphPad Prism 5; GraphPad Software Inc.)

Row | IC50 [1] [nM] | IC50 [3] [nM] | IC50 (FLT3-D835Y mutant kinase) [nM] | IC50 (FLT3 kinase) [nM] | SMILES | IC50 [2] [nM] | IC50 [4] [nM] | IC50 [5] [nM]
1 | < 30 | < 30 | – | – | Cn1ncc2ccc(-c3n[nH]c4c3Cc3sc(-c5ccc(CN6CCOCC6)cn5)cc3-4)cc21 [Compound 55, 4-((6-(3-(1-methyl-1H-indazol-6-yl)-1,4-dihydro-thieno[2′,3′:4,5]cyclopenta [1,2-c]pyrazol-6-yl)pyridin-3-yl)methyl) morpholine] | > 10000 | > 10000 | > 10000
2 | – | – | 15 | 8 | COc1ccc(-c2n[nH]c3c2Cc2sc(-c4ccc(N)nc4)cc2-3)cc1 [Example H, 5-(3-(4-methoxyphenyl)-1,4-dihydrothieno[2′,3′:4,5]cyclopenta[1,2-c]pyrazol-6-yl)pyridin-2-amine, reference compound] | – | – | –
